# How the values were obtained:
# Type in all cases: in vivo
# [1] = test system: blackgrass (Alopecurus myosuroides); test: Test A postemergence greenhouse test
# Text: (§1) Seeds of plant species selected from barnyardgrass (Echinochloa crus-galli), kochia (Kochia scoparia), ragweed (common ragweed, Ambrosia elatior), ryegrass, Italian (Lolium multiflorum), foxtail, giant (Setaria faberii), foxtail, green (Setaria viridis) and pigweed (Amaranthus retroflexus) were planted into a blend of loam soil and sand and treated preemergence with a directed soil spray using test chemicals formulated in a non-phytotoxic solvent mixture which included a surfactant.
# (§2) At the same time, plants selected from these weed species and also wheat (Triticum aestivum), corn (Zea mays), blackgrass (Alopecurus myosuroides) and galium (catchweed bedstraw, Galium aparine) were planted in pots containing the same blend of loam soil and sand and treated with postemergence applications of test chemicals formulated in the same manner. Plants ranged in height from 2 to 10 cm and were in the one- to two-leaf stage for the postemergence treatment. Treated plants and untreated controls were maintained in a greenhouse for approximately 10 d, after which time all treated plants were compared to untreated controls and visually evaluated for injury. Plant response ratings, summarized in Table A, are based on a 0 to 100 scale where 0 is no effect and 100 is complete control. A dash (-) response means no test result.
# [2] = test system: galium (catchweed bedstraw, Galium aparine); test: Test A postemergence greenhouse test
# Text: as §1, §2
# corn (Zea mays) = test: Test A postemergence greenhouse test
# Text: as §1, §2
# [3] = test system: wheat (Triticum aestivum); test: Test A postemergence greenhouse test
# Text: as §1, §2
# [4] = test system: barley, winter (Hordeum vulgare); test: Test D pre-/postemergence controlled growth environment test
# Text: (§3) Seeds of plant species selected from blackgrass (Alopecurus myosuroides), galium (catchweed bedstraw, Galium aparine), kochia (Kochia scoparia), oilseed rape (Brassica napus), barley, spring (Hordeum vulgare), wheat, spring (Triticum aestivum), oat, wild (Avena fatua), barley, winter (Hordeum vulgare) and wheat, winter (Triticum aestivum) were planted into a silt loam soil and treated preemergence with test chemicals formulated in a non-phytotoxic solvent mixture which included a surfactant.
# (§4) At the same time, plants selected from these crop and weed species and also bluegrass (annual bluegrass, Poa annua), canarygrass (littleseed canarygrass, Phalaris minor), chickweed (common chickweed, Stellaria media), bromegrass, downy (downy bromegrass, Bromus tectorum), field poppy (Papaver rhoeas), field violet (Viola arvensis), foxtail, green (Setaria viridis), deadnettle (henbit deadnettle, Lamium amplexicaule), ryegrass, Italian (Lolium multiflorum), lambsquarters (Chenopodium album), pigweed (Amaranthus retroflexus), chamomile (scentless chamomile, Matricaria inodora), Russian thistle (Salsola kali), speedwell (bird's-eye speedwell, Veronica persica), buckwheat, wild (Polygonum convolvulus), mustard, wild (Sinapis arvensis), radish, wild (Raphanus raphanistrum), windgrass (Apera spica-venti), geranium, cutleaf (Geranium dissectum) and Canada thistle (Cirsium arvense) were planted in pots containing Redi-Earth® planting medium (Scotts Company, 14111 Scottslawn Road, Marysville, Ohio 43041) comprising spaghnum peat moss, vermiculite, wetting agent and starter nutrients and treated with postemergence applications of the test chemicals formulated in the same manner. Plants ranged in height from 2 to 18 cm (1- to 4-leaf stage). Treated plants and controls were maintained in a controlled growth environment for 14 to 21 d after which time all species were compared to controls and visually evaluated. Plant response ratings, summarized in Table D, are based on a scale of 0 to 100 where 0 is no effect and 100 is complete control. A dash (-) response means no test result.
# [5] = test system: blackgrass (Alopecurus myosuroides); test: as above
# Text: as §3, §4
# [6] = test system: galium (catchweed bedstraw, Galium aparine); test: as above
# Text: as §3, §4
# [7] = test system: wheat, spring (Triticum aestivum); test: as above
# Text: as §3, §4
# kochia (Kochia scoparia) = test: as above
# Text: as §3, §4
# [8] = test system: barley, spring (Hordeum vulgare); test: as above
# Text: as §3, §4
# [9] = test system: wheat, winter (Triticum aestivum); test: as above
# Text: as §3, §4
# oat, wild (Avena fatua) = test: as above
# Text: as §3, §4
# [10] = test system: oilseed rape (Brassica napus); test: as above
# Text: as §3, §4
smiles,measurement,setting,value
Cc1cc(Cl)c2ccccc2c1-c1c(O)c(Cl)nn(C)c1=O [Cpd. No. 65],Plant response rating (0 to 100 scale),[1]; 31 g ai/ha,90
same,Plant response rating (0 to 100 scale),[1]; 125 g ai/ha,100
same,Plant response rating (0 to 100 scale),[2]; 31 g ai/ha,100
same,Plant response rating (0 to 100 scale),[2]; 125 g ai/ha,100
same,Plant response rating (0 to 100 scale),corn (Zea mays); 31 g ai/ha,30
same,Plant response rating (0 to 100 scale),corn (Zea mays); 125 g ai/ha,50
same,Plant response rating (0 to 100 scale),[3]; 31 g ai/ha,80
same,Plant response rating (0 to 100 scale),[3]; 125 g ai/ha,90
same,"Plant response rating, Barley, Winter","[4]; Postemergence, 16 g ai/ha",60
same,"Plant response rating, Barley, Winter","[4]; Postemergence, 31 g ai/ha",72
same,"Plant response rating, Barley, Winter","[4]; Postemergence, 62 g ai/ha",83
same,"Plant response rating, Barley, Winter","[4]; Postemergence, 125 g ai/ha",90
same,"Plant response rating, Barley, Winter","[4]; Preemergence, 16 g ai/ha",0
same,"Plant response rating, Barley, Winter","[4]; Preemergence, 31 g ai/ha",3
same,"Plant response rating, Barley, Winter","[4]; Preemergence, 62 g ai/ha",7
same,"Plant response rating, Barley, Winter","[4]; Preemergence, 125 g ai/ha",23
same,"Plant response rating, Blackgrass","[5]; Postemergence, 16 g ai/ha",83
same,"Plant response rating, Blackgrass","[5]; Postemergence, 31 g ai/ha",90
same,"Plant response rating, Blackgrass","[5]; Postemergence, 62 g ai/ha",93
same,"Plant response rating, Blackgrass","[5]; Postemergence, 125 g ai/ha",95
same,"Plant response rating, Blackgrass","[5]; Preemergence, 16 g ai/ha",13
same,"Plant response rating, Blackgrass","[5]; Preemergence, 31 g ai/ha",23
same,"Plant response rating, Blackgrass","[5]; Preemergence, 62 g ai/ha",63
same,"Plant response rating, Blackgrass","[5]; Preemergence, 125 g ai/ha",90
same,"Plant response rating, Galium","[6]; Postemergence, 16 g ai/ha",85
same,"Plant response rating, Galium","[6]; Postemergence, 31 g ai/ha",97
same,"Plant response rating, Galium","[6]; Postemergence, 62 g ai/ha",97
same,"Plant response rating, Galium","[6]; Postemergence, 125 g ai/ha",98
same,"Plant response rating, Galium","[6]; Preemergence, 16 g ai/ha",13
same,"Plant response rating, Galium","[6]; Preemergence, 31 g ai/ha",82
same,"Plant response rating, Galium","[6]; Preemergence, 62 g ai/ha",98
same,"Plant response rating, Galium","[6]; Preemergence, 125 g ai/ha",100
same,"Plant response rating, Wheat, Spring","[7]; Postemergence, 16 g ai/ha",90
same,"Plant response rating, Wheat, Spring","[7]; Postemergence, 31 g ai/ha",93
same,"Plant response rating, Wheat, Spring","[7]; Postemergence, 62 g ai/ha",93
same,"Plant response rating, Wheat, Spring","[7]; Postemergence, 125 g ai/ha",93
same,"Plant response rating, Wheat, Spring","[7]; Preemergence, 16 g ai/ha",63
same,"Plant response rating, Wheat, Spring","[7]; Preemergence, 31 g ai/ha",78
same,"Plant response rating, Wheat, Spring","[7]; Preemergence, 62 g ai/ha",90
same,"Plant response rating, Wheat, Spring","[7]; Preemergence, 125 g ai/ha",100
same,"Plant response rating, Kochia","kochia (Kochia scoparia); Postemergence, 16 g ai/ha",35
same,"Plant response rating, Kochia","kochia (Kochia scoparia); Postemergence, 31 g ai/ha",50
same,"Plant response rating, Kochia","kochia (Kochia scoparia); Postemergence, 62 g ai/ha",75
same,"Plant response rating, Kochia","kochia (Kochia scoparia); Postemergence, 125 g ai/ha",90
same,"Plant response rating, Kochia","kochia (Kochia scoparia); Preemergence, 16 g ai/ha",12
same,"Plant response rating, Kochia","kochia (Kochia scoparia); Preemergence, 31 g ai/ha",22
same,"Plant response rating, Kochia","kochia (Kochia scoparia); Preemergence, 62 g ai/ha",72
same,"Plant response rating, Kochia","kochia (Kochia scoparia); Preemergence, 125 g ai/ha",93
same,"Plant response rating, Barley, Spring","[8]; Postemergence, 16 g ai/ha",57
same,"Plant response rating, Barley, Spring","[8]; Postemergence, 31 g ai/ha",78
same,"Plant response rating, Barley, Spring","[8]; Postemergence, 62 g ai/ha",88
same,"Plant response rating, Barley, Spring","[8]; Postemergence, 125 g ai/ha",93
same,"Plant response rating, Barley, Spring","[8]; Preemergence, 16 g ai/ha",0
same,"Plant response rating, Barley, Spring","[8]; Preemergence, 31 g ai/ha",3
same,"Plant response rating, Barley, Spring","[8]; Preemergence, 62 g ai/ha",5
same,"Plant response rating, Barley, Spring","[8]; Preemergence, 125 g ai/ha",73
same,"Plant response rating, Wheat, Winter","[9]; Postemergence, 16 g ai/ha",85
same,"Plant response rating, Wheat, Winter","[9]; Postemergence, 31 g ai/ha",90
same,"Plant response rating, Wheat, Winter","[9]; Postemergence, 62 g ai/ha",90
same,"Plant response rating, Wheat, Winter","[9]; Postemergence, 125 g ai/ha",92
same,"Plant response rating, Wheat, Winter","[9]; Preemergence, 16 g ai/ha",23
same,"Plant response rating, Wheat, Winter","[9]; Preemergence, 31 g ai/ha",67
same,"Plant response rating, Wheat, Winter","[9]; Preemergence, 62 g ai/ha",80
same,"Plant response rating, Wheat, Winter","[9]; Preemergence, 125 g ai/ha",93
same,"Plant response rating, Oat, Wild","oat, wild (Avena fatua); Postemergence, 16 g ai/ha",92
same,"Plant response rating, Oat, Wild","oat, wild (Avena fatua); Postemergence, 31 g ai/ha",92
same,"Plant response rating, Oat, Wild","oat, wild (Avena fatua); Postemergence, 62 g ai/ha",96
same,"Plant response rating, Oat, Wild","oat, wild (Avena fatua); Postemergence, 125 g ai/ha",99
same,"Plant response rating, Oat, Wild","oat, wild (Avena fatua); Preemergence, 16 g ai/ha",28
same,"Plant response rating, Oat, Wild","oat, wild (Avena fatua); Preemergence, 31 g ai/ha",80
same,"Plant response rating, Oat, Wild","oat, wild (Avena fatua); Preemergence, 62 g ai/ha",83
same,"Plant response rating, Oat, Wild","oat, wild (Avena fatua); Preemergence, 125 g ai/ha",97
same,"Plant response rating, Oilseed Rape","[10]; Postemergence, 16 g ai/ha",85
same,"Plant response rating, Oilseed Rape","[10]; Postemergence, 31 g ai/ha",87
same,"Plant response rating, Oilseed Rape","[10]; Postemergence, 62 g ai/ha",90
same,"Plant response rating, Oilseed Rape","[10]; Postemergence, 125 g ai/ha",100
same,"Plant response rating, Oilseed Rape","[10]; Preemergence, 16 g ai/ha",0
same,"Plant response rating, Oilseed Rape","[10]; Preemergence, 31 g ai/ha",18
same,"Plant response rating, Oilseed Rape","[10]; Preemergence, 62 g ai/ha",85
same,"Plant response rating, Oilseed Rape","[10]; Preemergence, 125 g ai/ha",100
